# According to PMC10379010, “Short Peptides of Innate Immunity Protein Tag7 (PGLYRP1) Selectively Induce Inhibition or Activation of Tumor Cell Death via TNF Receptor” (International Journal of Molecular Sciences, 2023):
# Where a SMILES comes first, the peptide text is derived from it.
# Legend:
# [1] = system: K562 cells (killed by cytotoxic CD4+-T lymphocytes); test: Inhibition of the cytotoxic activity of CD4+-T lymphocytes; type: cell-based; details: K562 cells preincubated with peptide 30 min (1 nM), then cytotoxic lymphocytes, ratio 1:20, 24 h; Cytotox 96; n = 5
# Experimental: Figure 5 (a) The peptides were biotinylated and added to cells of the K562 line, followed by incubation for 1 h. Next, the peptides were cross-linked with Hsp70 on the cell surface with BS^3 reagent (Sigma-Aldrich, St. Louis, MO, USA). After stopping the reaction, the cells were lysed in RIP-A (Sigma-Aldrich, St. Louis, MO, USA) buffer in the presence of protease inhibitors. The lysate was purified by magnetic separation on M280 Streptavidin Beads. The obtained fractions containing 17.1A-Hsp70 and 17.1B-Hsp70 were analyzed using 12% SDS-PAGE electrophoresis and Western blot. Complexes were detected using primary antibodies abHsp70 poly-AT and secondary antibodies anti-rabbit peroxidase-linked (ECL). (b) Tumor cells of the K562 line were preincubated with peptides 17.1, 17.1A and 17.1B for 30 min., and then cytotoxic lymphocytes were added and cytotoxic activity was determined (24 h incubation), n = 5 for each point, (* p-value < 0.05). […]
# For the cytotoxicity tests, target cells were cultured in 96-well plates (6 × 10^4 cells per well) and mixed with lymphocytes at a ratio of 1:20. The cytotoxicity was measured after 24 h of incubation. […] The cytotoxic activity of the lymphocytes was determined using the Cytotox 96 analysis kit (Promega, Madison, WI, USA) in accordance with the manufacturer’s protocol.
# Hsp70 = target: T1, Hsp70 (Homo sapiens, UniProt P0DMV8); test: Microscale thermophoresis, binding to labeled Hsp70; details: labeled Hsp70 200 nM, 16 ligand concentrations, 20 min, room temperature, triplicate, average ± SD, read-out: Apparent dissociation constant (Kd) with Hsp70
# T1 construct: made in house
# Source text: (§1) Protein–protein interactions of sTNFR1 and Hsp70 with the peptides 17.1, 17.1A and 17.1B and the Tag7 protein were quantified using microscale thermophoresis (MST). This biophysical method is based on the movement of molecules in a temperature gradient, which strongly depends on the charge, the hydration shell and the size of the moving molecules. At least one of these qualities usually changes during the formation of the complex. Therefore, thermophoresis provides a sensitive and reliable method for analyzing and quantifying protein–protein interactions. […] The obtained constants indicate a highly specific interaction of Tag7, 17.1 and 17.1A with sTNFR1. Similarly, clear changes in the thermophoretic signal were observed when Tag7, 17.1 and 17.1B were added to the labeled Hsp70. […]
# (§2) The purified sTNFR1 and Hsp70 were fluorescently labeled using the Alexa Fluor 633 or Alexa Fluor 488 staining kit (Eugene, OR, USA) in accordance with the manufacturer’s instructions. sTNFR1 and Hsp70 (200 nM) were incubated for 20 min with each compound in the dark at room temperature at 16 different concentrations obtained by sequential dilution, starting from the highest soluble concentration. The samples were loaded into glass capillaries (Monolith NT Capillaries) and analyzed by thermophoresis using Nano-Temperature Monolith NT 115 apparatus (IR laser power 10%). […]
# [2] = system: L929 cells (TNFR1-induced cytotoxicity); test: Inhibition of TNFR1-dependent cytotoxicity, L929 cells; type: cell-based, mouse; details: 24 h, peptide added 30 min before TNF (1 nM), only at peptide concentration of 100 nM, n = 5
# Experimental: Figure 2 Cells (HL-60 (a–d) or L-929 (e,f)) were preincubated with peptide 17.1A (a,b) or 17.1B (c–f) for 30 min, and then a cytotoxic agent (TNF, Tag7-Hsp70 complex or autoantibodies) was added and cytotoxic activity was then determined after 3 (a,c,e) or 24 h (b,d,f) of cell incubation. n = 5 for each group). (* p-value < 0.05).
# (L929 cells, 24 h of incubation, peptides were added 30 min before incubation with TNF (1 nM)) n = 5 for each point.
# For the cytotoxicity tests, target cells were cultured in 96-well plates (6 × 10^4 cells per well) and mixed with lymphocytes at a ratio of 1:20. The cytotoxicity was measured after 24 h of incubation. The inhibition test was performed with peptides 17.1, 17.1A and 17.1B at a concentration of 1 nM. The cytotoxic activity of the lymphocytes was determined using the Cytotox 96 analysis kit (Promega, Madison, WI, USA) in accordance with the manufacturer’s protocol.
# sTNFR1 = target: T2, sTNFR1 (Homo sapiens, UniProt P19438); test: Microscale thermophoresis, binding to labeled sTNFR1; details: labeled sTNFR1 200 nM, 16 ligand concentrations, 20 min, room temperature, triplicate, average ± SD, read-out: Apparent dissociation constant (Kd) with sTNFR1
# T2 construct: the soluble extracellular domain of its receptor (sTNFR1); made in house
# T2 sequence (P19438 30-211 limits assumed): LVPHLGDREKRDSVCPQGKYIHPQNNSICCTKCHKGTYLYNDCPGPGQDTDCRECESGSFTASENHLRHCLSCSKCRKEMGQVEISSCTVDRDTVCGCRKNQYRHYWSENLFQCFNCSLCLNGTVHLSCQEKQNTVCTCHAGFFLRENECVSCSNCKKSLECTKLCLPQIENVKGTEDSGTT
# Source text: as §1, §2
# T1 sequence (P0DMV8 whole entry): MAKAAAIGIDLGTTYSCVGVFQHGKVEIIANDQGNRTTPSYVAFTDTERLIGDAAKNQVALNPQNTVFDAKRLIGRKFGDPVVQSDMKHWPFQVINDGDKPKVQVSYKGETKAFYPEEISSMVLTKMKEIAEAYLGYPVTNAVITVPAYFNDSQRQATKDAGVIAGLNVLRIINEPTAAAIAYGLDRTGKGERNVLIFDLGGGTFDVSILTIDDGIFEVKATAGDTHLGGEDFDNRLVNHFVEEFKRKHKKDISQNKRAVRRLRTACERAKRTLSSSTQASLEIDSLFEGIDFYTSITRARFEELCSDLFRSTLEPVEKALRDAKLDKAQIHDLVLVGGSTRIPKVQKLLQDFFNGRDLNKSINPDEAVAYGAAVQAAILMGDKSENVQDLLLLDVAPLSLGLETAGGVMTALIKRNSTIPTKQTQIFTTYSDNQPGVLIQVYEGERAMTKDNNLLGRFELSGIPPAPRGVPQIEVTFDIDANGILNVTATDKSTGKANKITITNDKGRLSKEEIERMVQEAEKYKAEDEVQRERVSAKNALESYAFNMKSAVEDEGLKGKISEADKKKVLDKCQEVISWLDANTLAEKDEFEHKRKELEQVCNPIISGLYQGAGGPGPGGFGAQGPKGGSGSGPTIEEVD
SMILES,Effect on the cytotoxic activity of CD4+-T lymphocytes [1],Kd (Hsp70) [nM],Inhibitory effect on TNF cytotoxic activity at 100 nM [2],Kd (sTNFR1) [nM]
"CC(C)[C@H](NC(=O)[C@H](CC(=O)O)NC(=O)[C@H](CCCNC(=N)N)NC(=O)[C@@H](N)Cc1c[nH]cn1)C(=O)N[C@@H](CCC(N)=O)C(=O)N[C@@H](CCCNC(=N)N)C(=O)N[C@H](C(=O)O)[C@@H](C)O [17.1A, HRDVQRT] (H-HRDVQRT-OH)",no effect on cell death,222 ± 15,,
"CC(C)C[C@H](NC(=O)[C@@H](NC(=O)[C@H](Cc1ccc(O)cc1)NC(=O)[C@H](CC(N)=O)NC(=O)[C@H](CO)NC(=O)[C@@H](N)CCCNC(=N)N)C(C)C)C(=O)N[C@@H](CCCCN)C(=O)NCC(=O)O [17.1B, RSNYVLKG] (H-RSNYVLKG-OH)",completely block the cytotoxic effect of lymphocytes,3.15 ± 0.7,weak inhibitory effect,6690 ± 120
